ChEMBL document CHEMBL1201862, “PubChem BioAssay data set” (2004)
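The compound was tested at five concentrations on cells cultured in 96-well plates, with a 48-hour exposure period. GI50 = concentration required for 50% inhibition of growth.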 The source made the active and inactive calls. Rule as the data show it: active = GI50 up to about 1.1 µM and inactive = higher.

Columns and labels:
Test in all cases: inhibition of tumour cell growth, NCI panel, 48 h
786-0 = tested on: 786-0
A549 = tested on: A549
ACHN = tested on: ACHN
EKVX = tested on: EKVX
HCC 2998 = tested on: HCC 2998
HCT-15 = tested on: HCT-15
HL-60 = tested on: HL-60
HOP-92 = tested on: HOP-92
K562 = tested on: K562
MDA-MB-231 = tested on: MDA-MB-231
Malme-3M = tested on: Malme-3M
NCI-H460 = tested on: NCI-H460
OVCAR-4 = tested on: OVCAR-4
PC-3 = tested on: PC-3
SF-295 = tested on: SF-295
SK-OV-3 = tested on: SK-OV-3
SR = tested on: SR
T47D = tested on: T47D
U-251 = tested on: U-251
UACC-62 = tested on: UACC-62

Compound: COC(=O)C1CCC(=O)N1C(c1ccccc1)c1cc(OC)c(OC)c(OC)c1 (stereo not drawn)
- GI50 (786-0): > 100 µM (inactive)
- GI50 (A549): 54.2 µM (inactive)
- GI50 (ACHN): > 100 µM (inactive)
- GI50 (EKVX): 91 µM (inactive)
- GI50 (HCC 2998): > 100 µM (inactive)
- GI50 (HCT-15): 42.6 µM
- GI50 (HL-60): 29.4 µM (inactive)
- GI50 (HOP-92): 99.3 µM (inactive)
- GI50 (K562): 21.8 µM (inactive)
- GI50 (MDA-MB-231): 41.3 µM (inactive)
- GI50 (Malme-3M): 61.1 µM (inactive)
- GI50 (NCI-H460): 43 µM (inactive)
- GI50 (OVCAR-4): 49.7 µM (inactive)
- GI50 (PC-3): 51.3 µM (inactive)
- GI50 (SF-295): 38.9 µM (inactive)
- GI50 (SK-OV-3): > 100 µM (inactive)
- GI50 (SR): 50.9 µM (inactive)
- GI50 (T47D): 55.8 µM (inactive)
- GI50 (U-251): 80.4 µM (inactive)
- GI50 (UACC-62): 60.5 µM (inactive)

Compound: O=C(c1cccs1)c1nccc2c1cnc1ccccc12
- GI50 (786-0): 68.5 µM (inactive)
- GI50 (A549): > 100 µM (inactive)
- GI50 (ACHN): 38.5 µM (inactive)
- GI50 (EKVX): > 100 µM (inactive)
- GI50 (HCC 2998): > 100 µM (inactive)
- GI50 (HCT-15): > 100 µM
- GI50 (HL-60): > 100 µM (inactive)
- GI50 (HOP-92): 36.6 µM (inactive)
- GI50 (K562): > 100 µM (inactive)
- GI50 (MDA-MB-231): > 100 µM (inactive)
- GI50 (Malme-3M): > 100 µM (inactive)
- GI50 (NCI-H460): > 100 µM (inactive)
- GI50 (OVCAR-4): > 100 µM (inactive)
- GI50 (PC-3): > 100 µM (inactive)
- GI50 (SF-295): > 100 µM (inactive)
- GI50 (SK-OV-3): > 100 µM (inactive)
- GI50 (SR): > 100 µM (inactive)
- GI50 (T47D): > 100 µM (inactive)
- GI50 (U-251): 41.2 µM (inactive)
- GI50 (UACC-62): > 100 µM (inactive)

Compound: COc1cc(/C=C/C(=O)c2c([O-])on[n+]2-c2ccccc2)ccc1O
- GI50 (786-0): 2 µM (inactive)
- GI50 (A549): 4.09 µM (inactive)
- GI50 (ACHN): 2.32 µM (inactive)
- GI50 (EKVX): 3.72 µM (inactive)
- GI50 (HCC 2998): 2.27 µM (inactive)
- GI50 (HCT-15): 2.13 µM
- GI50 (HL-60): 0.853 µM (active)
- GI50 (HOP-92): 2.4 µM (inactive)
- GI50 (K562): 2.7 µM (inactive)
- GI50 (MDA-MB-231): 2.98 µM (inactive)
- GI50 (Malme-3M): 2.78 µM (inactive)
- GI50 (NCI-H460): 2.07 µM (inactive)
- GI50 (OVCAR-4): 1.9 µM (inactive)
- GI50 (PC-3): 6.58 µM (inactive)
- GI50 (SF-295): 7.89 µM (inactive)
- GI50 (SK-OV-3): 3.73 µM (inactive)
- GI50 (SR): 1.53 µM (inactive)
- GI50 (T47D): 2.77 µM (inactive)
- GI50 (U-251): 3.1 µM (inactive)
- GI50 (UACC-62): 3.44 µM (inactive)

Compound: CNC(=S)N/N=C/c1cccc(C)n1
- GI50 (786-0): 24.6 µM (inactive)
- GI50 (A549): 39 µM (inactive)
- GI50 (ACHN): 28.2 µM (inactive)
- GI50 (EKVX): 46.6 µM (inactive)
- GI50 (HCC 2998): > 54 µM (inactive)
- GI50 (HCT-15): 26 µM
- GI50 (HL-60): > 45.5 µM (inactive)
- GI50 (HOP-92): 55.8 µM (inactive)
- GI50 (K562): 42.8 µM (inactive)
- GI50 (MDA-MB-231): 39.3 µM (inactive)
- GI50 (Malme-3M): 37.2 µM (inactive)
- GI50 (NCI-H460): 19.9 µM (inactive)
- GI50 (OVCAR-4): > 59.7 µM (inactive)
- GI50 (PC-3): 42 µM (inactive)
- GI50 (SF-295): 32.7 µM (inactive)
- GI50 (SK-OV-3): 37.2 µM (inactive)
- GI50 (SR): > 41.9 µM (inactive)
- GI50 (T47D): 42.8 µM (inactive)
- GI50 (U-251): 26.1 µM (inactive)
- GI50 (UACC-62): 23.6 µM (inactive)

Compound: NCCCCNCCCN1CCOC1=O
- GI50 (786-0): > 100 µM (inactive)
- GI50 (A549): > 100 µM (inactive)
- GI50 (ACHN): > 100 µM (inactive)
- GI50 (EKVX): > 100 µM (inactive)
- GI50 (HCC 2998): > 100 µM (inactive)
- GI50 (HCT-15): > 100 µM
- GI50 (HL-60): > 100 µM (inactive)
- GI50 (K562): > 100 µM (inactive)
- GI50 (MDA-MB-231): > 100 µM (inactive)
- GI50 (Malme-3M): > 100 µM (inactive)
- GI50 (NCI-H460): > 100 µM (inactive)
- GI50 (PC-3): > 100 µM (inactive)
- GI50 (SF-295): > 100 µM (inactive)
- GI50 (SK-OV-3): > 100 µM (inactive)
- GI50 (SR): > 100 µM (inactive)
- GI50 (T47D): > 100 µM (inactive)
- GI50 (U-251): > 100 µM (inactive)
- GI50 (UACC-62): > 100 µM (inactive)

Compound: CC(C)c1ccc2c(c1)/C(=C1/Nc3ccccc3C1=O)C(=O)N2
- GI50 (786-0): 3.52 µM (inactive)
- GI50 (A549): 15.3 µM (inactive)
- GI50 (ACHN): 3.71 µM (inactive)
- GI50 (EKVX): 5.7 µM (inactive)
- GI50 (HCC 2998): 19.2 µM (inactive)
- GI50 (HCT-15): 36.5 µM
- GI50 (HOP-92): 4.58 µM (inactive)
- GI50 (K562): 33.7 µM (inactive)
- GI50 (MDA-MB-231): 5.85 µM (inactive)
- GI50 (Malme-3M): 46.8 µM (inactive)
- GI50 (NCI-H460): 9.27 µM (inactive)
- GI50 (OVCAR-4): 1.7 µM (inactive)
- GI50 (PC-3): 8.85 µM (inactive)
- GI50 (SF-295): 14.8 µM (inactive)
- GI50 (SK-OV-3): 3.75 µM (inactive)
- GI50 (SR): 18.4 µM (inactive)
- GI50 (T47D): 0.557 µM (active)
- GI50 (U-251): 10.6 µM (inactive)
- GI50 (UACC-62): 14.9 µM (inactive)

Compound: CCCCCC(=O)CCCCCCCC(O)CC(=O)OCC (stereo not drawn)
- GI50 (786-0): > 100 µM (inactive)
- GI50 (A549): > 100 µM (inactive)
- GI50 (ACHN): > 100 µM (inactive)
- GI50 (HCC 2998): > 100 µM (inactive)
- GI50 (HCT-15): > 100 µM
- GI50 (HL-60): 48.9 µM (inactive)
- GI50 (HOP-92): 49.1 µM (inactive)
- GI50 (K562): > 100 µM (inactive)
- GI50 (MDA-MB-231): > 100 µM (inactive)
- GI50 (Malme-3M): > 100 µM (inactive)
- GI50 (NCI-H460): > 100 µM (inactive)
- GI50 (PC-3): > 100 µM (inactive)
- GI50 (SF-295): > 10 µM (inactive)
- GI50 (SR): > 100 µM (inactive)
- GI50 (T47D): > 100 µM (inactive)
- GI50 (U-251): 64.3 µM (inactive)
